According to ChEMBL document CHEMBL4152237, “Identification of novel β-lactams and pyrrolidinone derivatives as selective Histamine-3 receptor (H3R) modulators as possible anti-obesity agents” (Eur J Med Chem, 2018):
Calls of active or inactive are those of the source.

What was measured:
[1] = target: Histamine H4 receptor (Homo sapiens) (UniProt Q9H3N8); test: Antagonist activity at H4R (unknown origin) expressed in HEK293 cells harboring glosensor-22F cAMP plasmid DNA assessed as effect on forskolin-stimulated cAMP accumulation at 10 uM preincubated with cells followed by forskolin addition measured after 10 mins by luminescence assay; format: functional, cell-based
[2] = target: Histamine H2 receptor (Homo sapiens) (UniProt P25021); test: (§1) Agonist activity at H2R (unknown origin) expressed in HEK293 cells harboring glosensor-22F cAMP plasmid DNA assessed as inhibition of forskolin-stimulated cAMP accumulation at 10 uM preincubated with cells followed by forskolin addition measured after 10 mins by luminescence assay; format: functional, cell-based
[3] = target: T1, 5-hydroxytryptamine receptor 2C (Homo sapiens) (UniProt P28335); test: Antagonist activity at human 5-HT2C expressed in HEK293 cells harboring luc2P/NFAT-RE plasmid at 10 uM after 6 to 8 hrs by luciferase reporter gene assay; format: functional, cell-based
T1 sequence (whole entry): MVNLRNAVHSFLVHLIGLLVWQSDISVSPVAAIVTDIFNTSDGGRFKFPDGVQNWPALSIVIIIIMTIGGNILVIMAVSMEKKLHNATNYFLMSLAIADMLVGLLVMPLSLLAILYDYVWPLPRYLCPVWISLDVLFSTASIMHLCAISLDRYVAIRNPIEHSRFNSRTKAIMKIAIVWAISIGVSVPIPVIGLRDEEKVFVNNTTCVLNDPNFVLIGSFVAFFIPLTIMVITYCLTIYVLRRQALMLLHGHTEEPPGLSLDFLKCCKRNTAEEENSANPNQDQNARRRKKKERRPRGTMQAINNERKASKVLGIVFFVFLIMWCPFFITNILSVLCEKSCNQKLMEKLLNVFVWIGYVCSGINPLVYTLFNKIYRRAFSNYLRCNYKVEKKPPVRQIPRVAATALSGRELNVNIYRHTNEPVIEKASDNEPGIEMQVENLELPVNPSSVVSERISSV

[4] = target: Luciferin 4-monooxygenase (Photinus pyralis) (UniProt P08659); test: Inhibition of firefly luciferase activity expressed in HEK293 cells assessed as reduction in forskolin-stimulated cAMP accumulation up to 10 uM preincubated with cells followed by forskolin addition measured after 10 mins by luminescence assay; format: cell-based
Histamine H3 receptor [5] = target: T2, Histamine H3 receptor (Homo sapiens, UniProt Q9Y5N1); test: as §1, with “at human H3R” for “at H2R (unknown origin)”, “at 1” for “at 10”, “mins in presence of H3R antagonist GSK334429” for “mins”; format: functional, cell-based
[6] = target: Histamine H1 receptor (Homo sapiens) (UniProt P35367); test: Agonist activity at H1R (unknown origin) expressed in HEK293 cells harboring luc2P/NFAT-RE plasmid at 10 uM after 6 to 8 hrs by luciferase reporter gene assay; format: functional, cell-based
[7] = target: Histamine H1 receptor (Homo sapiens) (UniProt P35367); test: Antagonist activity at H1R (unknown origin) expressed in HEK293 cells harboring luc2P/NFAT-RE plasmid at 10 uM after 6 to 8 hrs by luciferase reporter gene assay; format: functional, cell-based
[8] = target: Histamine H2 receptor (Homo sapiens) (UniProt P25021); test: Antagonist activity at H2R (unknown origin) expressed in HEK293 cells harboring glosensor-22F cAMP plasmid DNA assessed as effect on forskolin-stimulated cAMP accumulation at 10 uM preincubated with cells followed by forskolin addition measured after 10 mins by luminescence assay; format: functional, cell-based
[9] = target: T1, 5-hydroxytryptamine receptor 2C (Homo sapiens); test: Agonist activity at human 5-HT2C expressed in HEK293 cells harboring luc2P/NFAT-RE plasmid at 10 uM after 6 to 8 hrs by luciferase reporter gene assay; format: functional, cell-based
HEK-293T = test: Cytotoxicity against HEK293T cells assessed as reduction in cell viability at 1 to 10 uM after 24 hrs by XTT assay; format: cell-based; conditions: human
[10] = target: Histamine H4 receptor (Homo sapiens) (UniProt Q9H3N8); test: Agonist activity at H4R (unknown origin) expressed in HEK293 cells harboring glosensor-22F cAMP plasmid DNA assessed as inhibition of forskolin-stimulated cAMP accumulation at 10 uM preincubated with cells followed by forskolin addition measured after 10 mins by luminescence assay; format: functional, cell-based
Histamine H3 receptor [11] = target: T2, Histamine H3 receptor; test: Agonist activity at human H3R expressed in HEK293 cells harboring glosensor-22F cAMP plasmid DNA assessed as inhibition of forskolin-stimulated cAMP accumulation preincubated with cells followed by forskolin addition measured after 10 mins by luminescence assay; format: functional, cell-based
Histamine H3 receptor [12] = target: T2, Histamine H3 receptor; test: Agonist activity at human H3R expressed in HEK293 cells harboring glosensor-22F cAMP plasmid DNA assessed as inhibition of forskolin-stimulated cAMP accumulation at 10 uM preincubated with cells followed by forskolin addition measured after 10 mins by luminescence assay relative to control; format: functional, cell-based

Histamine H2 receptor (Homo sapiens), sequence (P25021 whole entry): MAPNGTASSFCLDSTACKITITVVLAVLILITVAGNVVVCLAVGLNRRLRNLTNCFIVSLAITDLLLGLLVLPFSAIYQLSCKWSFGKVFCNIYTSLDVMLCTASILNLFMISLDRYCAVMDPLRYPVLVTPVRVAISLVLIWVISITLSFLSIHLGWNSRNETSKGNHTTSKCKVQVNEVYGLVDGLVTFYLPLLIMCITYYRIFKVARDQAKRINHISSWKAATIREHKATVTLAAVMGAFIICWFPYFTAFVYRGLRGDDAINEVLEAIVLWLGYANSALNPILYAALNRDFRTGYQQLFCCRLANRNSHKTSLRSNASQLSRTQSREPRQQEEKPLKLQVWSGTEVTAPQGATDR
Luciferin 4-monooxygenase (Photinus pyralis), sequence (P08659 whole entry): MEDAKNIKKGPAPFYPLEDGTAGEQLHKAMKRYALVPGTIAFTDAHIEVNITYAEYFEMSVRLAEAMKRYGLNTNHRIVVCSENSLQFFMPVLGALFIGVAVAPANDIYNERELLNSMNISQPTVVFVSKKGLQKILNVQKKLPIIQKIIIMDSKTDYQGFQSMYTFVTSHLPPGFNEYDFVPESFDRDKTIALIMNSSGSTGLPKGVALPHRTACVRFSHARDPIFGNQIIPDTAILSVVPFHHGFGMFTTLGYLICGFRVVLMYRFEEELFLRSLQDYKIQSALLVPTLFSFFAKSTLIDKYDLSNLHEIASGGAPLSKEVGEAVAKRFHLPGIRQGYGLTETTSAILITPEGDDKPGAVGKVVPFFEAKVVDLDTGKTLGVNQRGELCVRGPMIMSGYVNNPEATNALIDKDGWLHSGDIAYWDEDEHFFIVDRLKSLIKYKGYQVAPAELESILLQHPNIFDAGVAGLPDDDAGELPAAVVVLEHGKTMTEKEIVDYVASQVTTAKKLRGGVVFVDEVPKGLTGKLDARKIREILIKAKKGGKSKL
Histamine H1 receptor (Homo sapiens), sequence (P35367 whole entry): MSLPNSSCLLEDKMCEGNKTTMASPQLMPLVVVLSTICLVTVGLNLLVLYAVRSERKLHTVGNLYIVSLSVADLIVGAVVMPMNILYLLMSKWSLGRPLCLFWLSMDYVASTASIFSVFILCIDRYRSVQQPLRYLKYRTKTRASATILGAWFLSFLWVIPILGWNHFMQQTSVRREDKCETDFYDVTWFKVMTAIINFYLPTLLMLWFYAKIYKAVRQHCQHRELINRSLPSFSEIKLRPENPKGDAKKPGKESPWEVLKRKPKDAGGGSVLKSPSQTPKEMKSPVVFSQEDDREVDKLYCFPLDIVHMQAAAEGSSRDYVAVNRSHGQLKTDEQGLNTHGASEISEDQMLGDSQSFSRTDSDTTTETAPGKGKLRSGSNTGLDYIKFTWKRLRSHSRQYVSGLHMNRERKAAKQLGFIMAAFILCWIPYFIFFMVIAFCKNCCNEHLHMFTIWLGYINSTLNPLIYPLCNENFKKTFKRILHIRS
Histamine H4 receptor (Homo sapiens), sequence (Q9H3N8 whole entry): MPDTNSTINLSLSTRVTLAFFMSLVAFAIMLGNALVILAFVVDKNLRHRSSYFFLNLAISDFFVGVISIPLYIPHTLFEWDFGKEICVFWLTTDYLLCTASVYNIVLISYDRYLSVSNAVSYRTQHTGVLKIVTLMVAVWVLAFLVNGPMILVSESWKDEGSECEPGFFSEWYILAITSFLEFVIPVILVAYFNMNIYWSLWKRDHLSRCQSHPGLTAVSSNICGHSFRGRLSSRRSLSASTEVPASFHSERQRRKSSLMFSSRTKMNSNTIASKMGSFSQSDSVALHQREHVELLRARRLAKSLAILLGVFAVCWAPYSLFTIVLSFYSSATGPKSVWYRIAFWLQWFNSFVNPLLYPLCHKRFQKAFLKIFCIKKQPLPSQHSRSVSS
T2 sequence (Q9Y5N1 whole entry): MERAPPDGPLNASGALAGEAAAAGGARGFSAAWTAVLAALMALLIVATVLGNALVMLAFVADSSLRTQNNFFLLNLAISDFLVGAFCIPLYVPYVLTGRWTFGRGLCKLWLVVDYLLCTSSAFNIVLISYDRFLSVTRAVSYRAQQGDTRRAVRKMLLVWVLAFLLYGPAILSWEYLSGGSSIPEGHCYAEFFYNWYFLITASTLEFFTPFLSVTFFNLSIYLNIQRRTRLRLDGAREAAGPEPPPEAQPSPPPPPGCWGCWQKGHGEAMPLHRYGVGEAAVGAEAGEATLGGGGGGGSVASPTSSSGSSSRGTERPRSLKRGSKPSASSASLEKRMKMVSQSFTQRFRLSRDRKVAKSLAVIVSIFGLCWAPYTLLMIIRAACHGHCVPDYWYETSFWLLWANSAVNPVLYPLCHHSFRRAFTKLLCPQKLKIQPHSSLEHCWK

O=C1C=C[C@]23C(c4ccccc4)=CC(=O)N2[C@H](c2cc(F)cc(F)c2)C(=O)N[C@@H]3C1
inactive: inhibition [1] | inhibition [2] | inhibition [3] | inhibition [4] | inhibition (Histamine H3 receptor [5]) | Activity [6] | inhibition [7] | inhibition [8] | Activity [9] | inhibition [10]
10 nM: EC50 (Histamine H3 receptor [11]; read-out: EC50)
Non-Toxic: Activity (HEK-293T)

COc1cc(N2C(=O)C(=Cc3ccccc3)C2(C(=O)NC(C)(C)C)c2ccc(Cl)c(F)c2)cc(OC)c1OC (stereo not given)
inactive: inhibition [1] | inhibition [2] | inhibition [3] | inhibition [4] | inhibition (Histamine H3 receptor [5]) | Activity [6] | inhibition [7] | inhibition [8] | Activity [9] | inhibition [10]
Non-Toxic: Activity (HEK-293T)
1.1 nM: EC50 (Histamine H3 receptor [11]; read-out: EC50)

COc1ccc(C2=C(c3ccccc3)C3(C=CC(=O)C=C3)N(C(C(=O)NC3CCCCC3)c3cc4c(cc3Br)OCO4)C2=O)cc1 (stereo not given)
14.4 nM: EC50 (Histamine H3 receptor [11]; read-out: EC50)
inactive: inhibition [1] | inhibition [2] | inhibition [3] | inhibition [4] | inhibition (Histamine H3 receptor [5]) | Activity [6] | inhibition [7] | inhibition [8] | Activity [9] | inhibition [10]
Non-Toxic: Activity (HEK-293T)

COc1cc(NC2(c3ccccc3Cl)C(=O)N(C(C)(C)C)C(=O)/C2=C/c2ccccc2)cc(OC)c1OC (stereo not given)
187 nM: EC50 (Histamine H3 receptor [11]; read-out: EC50)
Non-Toxic: Activity (HEK-293T)
inactive: inhibition [1] | inhibition [2] | inhibition [3] | inhibition [4] | inhibition (Histamine H3 receptor [5]) | Activity [6] | inhibition [7] | inhibition [8] | Activity [9] | inhibition [10]

COc1ccc(N2C(=O)C(=Cc3ccccc3)C2(C(=O)NC2CCCCC2)c2cc(F)c(F)c(F)c2)cc1 (stereo not given)
inactive: inhibition [1] | inhibition [2] | inhibition [3] | inhibition [4] | inhibition (Histamine H3 receptor [5]) | Activity [6] | inhibition [7] | inhibition [8] | Activity [9] | inhibition [10]
Non-Toxic: Activity (HEK-293T)
0.1 nM: EC50 (Histamine H3 receptor [11]; read-out: EC50)

COC1=CC2(C=C(OC)C1=O)C(c1ccccc1)=C(c1ccc(C(F)(F)F)cc1)C(=O)N2C(C(=O)NC1CCCCC1)c1ccc(OC)c(OC)c1OC (stereo not given)
Non-Toxic: Activity (HEK-293T)
6.7 nM: EC50 (Histamine H3 receptor [11]; read-out: EC50)
inactive: inhibition [1] | inhibition [2] | inhibition [3] | inhibition [4] | inhibition (Histamine H3 receptor [5]) | Activity [6] | inhibition [7] | inhibition [8] | Activity [9] | inhibition [10]

COC1=CC2(C=C(OC)C1=O)C(c1ccccc1)=C(I)C(=O)N2C(C(=O)NC1CCCCC1)c1cc(OC)c(OC)c(OC)c1 (stereo not given)
inactive: inhibition (Histamine H3 receptor [12]) | Activity [9]

COc1ccc(NC2(c3ccc(Br)cc3)C(=O)N(C3CCCCC3)C(=O)/C2=C/c2ccccc2)cc1OC (stereo not given)
inactive: inhibition (Histamine H3 receptor [12]) | Activity [9]

COc1ccc(C2(Nc3cc(OC)c(OC)c(OC)c3)C(=O)N(C(C)(C)C)C(=O)/C2=C/c2ccccc2)cc1 (stereo not given)
inactive: inhibition (Histamine H3 receptor [12]) | Activity [9]

COc1ccc(N2C(=O)/C(=C\c3ccccc3)C2(C(=O)NC(C)(C)C)c2ccc(F)cc2)cc1 (stereo not given)
inactive: inhibition (Histamine H3 receptor [12]) | Activity [9]

COc1ccc(C(C(=O)NC(C)(C)C)N2C(=O)C(I)=C(c3ccccc3)C23C=CC(=O)C=C3)cc1 (stereo not given)
inactive: inhibition (Histamine H3 receptor [12]) | Activity [9]

COc1ccc(N2C(=O)C(=Cc3ccccc3)C2(C(=O)NC2CCCCC2)c2ccccc2)cc1OC (stereo not given)
inactive: inhibition (Histamine H3 receptor [12]) | Activity [9]

N=C(N)SCCc1cnc[nH]1
0.08 nM: EC50 (Histamine H3 receptor [11]; read-out: EC50)

O=C1C=C[C@]23C(c4ccccc4)=CC(=O)N2[C@H](c2ccccc2)C(=O)N[C@@H]3C1
inactive: inhibition (Histamine H3 receptor [12]) | Activity [9]

COC1=CC2(C=C(OC)C1=O)C(c1ccccc1)=C(I)C(=O)N2C(C(=O)NC1CCCCC1)c1ccc(OC)c(OC)c1OC (stereo not given)
inactive: inhibition (Histamine H3 receptor [12]) | Activity [9]

COc1ccc(NC2(c3ccccc3)C(=O)N(C(C)(C)C)C(=O)/C2=C/c2ccccc2)cc1 (stereo not given)
Non-Toxic: Activity (HEK-293T)
3 nM: EC50 (Histamine H3 receptor [11]; read-out: EC50)
inactive: inhibition [1] | inhibition [2] | inhibition [3] | inhibition [4] | inhibition (Histamine H3 receptor [5]) | Activity [6] | inhibition [7] | inhibition [8] | Activity [9] | inhibition [10]
22.9 nM: EC50 (Histamine H3 receptor [11]; read-out: pEC50 (converted))

COC1=CC2(C=C(OC)C1=O)C(c1ccccc1)=C(c1cccc3c1OCO3)C(=O)N2C(C(=O)NC1CCCCC1)c1cc(OC)c(OC)c(OC)c1 (stereo not given)
inactive: inhibition (Histamine H3 receptor [12]) | Activity [9]

COc1ccc(NC2(c3ccc(F)cc3)C(=O)N(C(C)(C)C)C(=O)/C2=C/c2ccccc2)cc1 (stereo not given)
inactive: inhibition [1] | inhibition [2] | inhibition [3] | inhibition [4] | inhibition (Histamine H3 receptor [5]) | Activity [6] | inhibition [7] | inhibition [8] | Activity [9] | inhibition [10]
Non-Toxic: Activity (HEK-293T)
1.23 nM: EC50 (Histamine H3 receptor [11]; read-out: pEC50 (converted))
1.3 nM: EC50 (Histamine H3 receptor [11]; read-out: EC50)

Cc1cc(C)cc([C@@H]2C(=O)N[C@@H]3CC(=O)C=C[C@@]34C(c3ccccc3)=CC(=O)N24)c1
inactive: inhibition (Histamine H3 receptor [12]) | Activity [9]

COc1ccc(NC2(c3cc(F)cc(F)c3)C(=O)N(C(C)(C)C)C(=O)/C2=C/c2ccccc2)cc1 (stereo not given)
inactive: inhibition (Histamine H3 receptor [12]) | Activity [9]

Cc1ccc([C@@H]2C(=O)N[C@@H]3CC(=O)C=C[C@@]34C(c3ccccc3)=CC(=O)N24)cc1
inactive: inhibition (Histamine H3 receptor [12]) | Activity [9]

CC(C)(C)NC(=O)C(c1ccccc1[N+](=O)O)N1C(=O)C(I)=C(c2ccccc2)C12C=CC(=O)C=C2 (stereo not given)
inactive: inhibition (Histamine H3 receptor [12]) | Activity [9]

COc1ccccc1[C@@H]1C(=O)N[C@@H]2CC(=O)C=C[C@@]23C(c2ccccc2)=CC(=O)N13
inactive: inhibition (Histamine H3 receptor [12]) | Activity [9]

COc1ccc(C(C(=O)NC(C)(C)C)N2C(=O)C(I)=C(c3ccccc3)C23C=CC(=O)C=C3)cc1C (stereo not given)
inactive: inhibition (Histamine H3 receptor [12]) | Activity [9]

COc1ccc(N2C(=O)C(=Cc3ccccc3)C2(C(=O)NC(C)(C)C)c2ccccc2)cc1 (stereo not given)
inactive: inhibition (Histamine H3 receptor [12]) | Activity [9]

COC1=CC2(C=C(OC)C1=O)C(c1ccccc1)=C(I)C(=O)N2C(C(=O)NC1CCCCC1)c1cccc([N+](=O)[O-])c1 (stereo not given)
inactive: inhibition (Histamine H3 receptor [12]) | Activity [9]

COc1ccc(C(C(=O)NC2CCCCC2)N2C(=O)C(I)=C(c3ccccc3)C23C=CC(=O)C=C3)cc1 (stereo not given)
inactive: inhibition (Histamine H3 receptor [12]) | Activity [9]
